{"source": "patent US5036055A", "about": "“Acylated derivatives of etoposide” (Bristol-Myers Company, priority 1989, dated 1991)", "key": {"P388 leukemia": {"system": "P388 leukemia", "experiment": "in vivo antitumor activity against murine transplantable P388 leukemia", "design": "species or system murine (female CDF1 mice)", "procedure": "Representative compounds of the present invention were evaluated for antitumor activity against murine transplantable P388 leukemia. Female CDF1 mice were inoculated intraperitoneally with 0.4 ml of diluted ascitic fluid containing 10^6 lymphocytic leukemia P388 cells. […] The percent increase of median survival time (MST) of treated animals over that of untreated control animals was determined and reported as % T/C. Compounds showing % T/C values of 125 or greater are considered to have significant antitumor activity. Table I presents the results of the in vivo evaluation; only the maximum % T/C and the dose giving the maximum effects are reported."}, "[1]": {"system": "Moser human colon carcinoma", "experiment": "in vitro cytotoxicity against Moser human colon carcinoma (neutral red, 540 nm)", "format": "cell-based", "conditions": "72 hours incubation", "procedure": "(§1) In vitro cytotoxicity of compounds of the present invention was evaluated against B16-F10 murine melanoma and Moser human colon carcinoma cell lines. Exponentially growing B16-F10 and Moser cells were harvested, counted and suspended in the culture medium at the concentrations of 1.5×10^4 and 3×10^4 cells/ml, respectively. Twenty-four hours after planting cell suspension (180 mcl) into wells of a 96-well microtiter plate, test materials (20 mcl) were added to the wells and the plates were incubated for 72 hours. The cytotoxic activities against the tumor cells were colorimetrically determined at 540 nm after staining viable cells with neutral red solution."}, "B16-F10 murine melanoma": {"system": "B16-F10 murine melanoma", "experiment": "in vitro cytotoxicity against B16-F10 murine melanoma (neutral red, 540 nm)", "format": "cell-based", "conditions": "Mus musculus, 72 hours incubation", "procedure": "as §1"}, "[2]": {"conditions": "120 mg/kg/day, i.p. single dose on day 1, CDF1 mice"}, "[3]": {"conditions": "Mus musculus, P388, ip, 1200 h, 120 mg/kg/day, i.p. single dose on day 1, maximum % T/C at dose giving maximum effect, CDF1 mice, 50 days, read-out: % T/C MST"}, "[4]": {"conditions": "Mus musculus, P388, ip, 1200 h, 30 mg/kg/day, i.p. single dose on day 1, maximum % T/C at dose giving maximum effect, CDF1 mice, 50 days, read-out: % T/C MST"}, "[5]": {"conditions": "Mus musculus, P388, ip, 1200 h, read-out: % T/C MST"}}, "note": "Like-named read-outs stand apart in the source and are kept apart here."}
{"smiles": "COc1cc([C@@H]2c3cc4c(cc3[C@@H](O[C@@H]3O[C@@H]5CO[C@@H](C)O[C@H]5[C@H](OC=O)[C@H]3OC=O)[C@H]3COC(=O)[C@H]23)OCO4)cc(OC)c1O", "note": "[Example 6, 2\",3\"-di-0-formyl etoposide]", "values": [{"measurement": "Number of survivors/tested on day 50", "setting": "P388 leukemia; [2]", "value": "3/4"}, {"measurement": "response vs control in vivo at 120 mg/kg", "setting": "P388 leukemia; [3]", "value": "> 500", "unit": "%"}, {"measurement": "IC50", "setting": "[1]", "value": 0.84, "unit": "µg/mL"}, {"measurement": "IC50", "setting": "B16-F10 murine melanoma", "value": 2, "unit": "µg/mL"}]}
{"smiles": "COc1cc([C@@H]2c3cc4c(cc3[C@@H](O[C@@H]3O[C@@H]5CO[C@@H](C)O[C@H]5[C@H](OC(C)=O)[C@H]3OC(C)=O)[C@H]3COC(=O)[C@H]23)OCO4)cc(OC)c1O", "note": "[Example 1, 2\",3\"-di-0-acetyl etoposide]", "values": [{"measurement": "response vs control in vivo at 30 mg/kg", "setting": "P388 leukemia; [4]", "value": 165, "unit": "%"}, {"measurement": "IC50", "setting": "[1]", "value": "< 0.8", "unit": "µg/mL"}, {"measurement": "IC50", "setting": "B16-F10 murine melanoma", "value": 1.3, "unit": "µg/mL"}]}
{"smiles": "COc1cc([C@@H]2c3cc4c(cc3[C@@H](O[C@@H]3O[C@@H]5CO[C@@H](C)O[C@H]5[C@H](OC(C)=O)[C@H]3O)[C@H]3COC(=O)[C@H]23)OCO4)cc(OC)c1O", "note": "[Example 4, 3\"-0-acetyl-etoposide]", "values": [{"measurement": "response vs control in vivo at 30 mg/kg", "setting": "P388 leukemia; [4]", "value": 210, "unit": "%"}, {"measurement": "IC50", "setting": "B16-F10 murine melanoma", "value": 1.4, "unit": "µg/mL"}]}
{"smiles": "COc1cc([C@@H]2c3cc4c(cc3[C@@H](O[C@@H]3O[C@@H]5CO[C@@H](C)O[C@H]5[C@H](O)[C@H]3O)[C@H]3COC(=O)[C@H]23)OCO4)cc(OC)c1O", "note": "[Etoposide, etoposide]", "values": [{"measurement": "Number of survivors/tested on day 50", "setting": "P388 leukemia; [2]", "value": "6/12"}, {"measurement": "response vs control in vivo at 30 mg/kg", "setting": "P388 leukemia; [5]", "value": 182, "unit": "%"}, {"measurement": "response vs control in vivo at 120 mg/kg", "setting": "P388 leukemia; [5]", "value": "> 390", "unit": "%"}, {"measurement": "IC50", "setting": "B16-F10 murine melanoma", "value": 0.45, "unit": "µg/mL"}]}
{"smiles": "COc1cc([C@@H]2c3cc4c(cc3[C@@H](O[C@@H]3O[C@@H]5CO[C@@H](C)O[C@H]5[C@H](OC(=O)c5ccccc5)[C@H]3OC(=O)c3ccccc3)[C@H]3COC(=O)[C@H]23)OCO4)cc(OC)c1O", "note": "[Example 10, 2\",3\"-0-di-benzoyletoposide]", "values": [{"measurement": "response vs control in vivo at 120 mg/kg", "setting": "P388 leukemia; [3]", "value": 125, "unit": "%"}, {"measurement": "IC50", "setting": "B16-F10 murine melanoma", "value": 4.4, "unit": "µg/mL"}]}
{"smiles": "COc1cc([C@@H]2c3cc4c(cc3[C@@H](O[C@@H]3O[C@@H]5CO[C@@H](C)O[C@H]5[C@H](O)[C@H]3OC(=O)c3ccccc3)[C@H]3COC(=O)[C@H]23)OCO4)cc(OC)c1O", "note": "[Example 8, 2\"-0-benzoyletoposide]", "values": [{"measurement": "response vs control in vivo at 120 mg/kg", "setting": "P388 leukemia; [3]", "value": 145, "unit": "%"}, {"measurement": "IC50", "setting": "B16-F10 murine melanoma", "value": 0.92, "unit": "µg/mL"}]}
{"smiles": "COc1cc([C@@H]2c3cc4c(cc3[C@@H](O[C@@H]3O[C@@H]5CO[C@@H](C)O[C@H]5[C@H](O)[C@H]3OC(C)=O)[C@H]3COC(=O)[C@H]23)OCO4)cc(OC)c1O", "note": "[Example 3, 2\"-0-acetyl etoposide]", "values": [{"measurement": "response vs control in vivo at 30 mg/kg", "setting": "P388 leukemia; [4]", "value": 240, "unit": "%"}, {"measurement": "IC50", "setting": "[1]", "value": 1.1, "unit": "µg/mL"}, {"measurement": "IC50", "setting": "B16-F10 murine melanoma", "value": 1.6, "unit": "µg/mL"}]}
{"smiles": "COc1cc([C@@H]2c3cc4c(cc3[C@@H](O[C@@H]3O[C@@H]5CO[C@@H](C)O[C@H]5[C@H](OC(=O)c5ccccc5)[C@H]3O)[C@H]3COC(=O)[C@H]23)OCO4)cc(OC)c1O", "note": "[Example 9, 3\"-0-Benzoyletoposide]", "values": [{"measurement": "Number of survivors/tested on day 50", "setting": "P388 leukemia; 60 mg/kg/day, i.p. single dose on day 1, CDF1 mice", "value": "1/4"}, {"measurement": "response vs control in vivo at 60 mg/kg", "setting": "P388 leukemia; Mus musculus, P388, ip, 1200 h, 60 mg/kg/day, i.p. single dose on day 1, maximum % T/C at dose giving maximum effect, CDF1 mice, 50 days, read-out: % T/C MST", "value": 420, "unit": "%"}, {"measurement": "IC50", "setting": "[1]", "value": 0.83, "unit": "µg/mL"}, {"measurement": "IC50", "setting": "B16-F10 murine melanoma", "value": 0.17, "unit": "µg/mL"}]}
